The test system of this experiment is Rattus norvegicus. The experiment in a line: Antinociceptive activity in icv dosed Sprague-Dawley rat assessed as latency to hind lift after 10 mins by hot plate test. The class given is functional. A general note: Thermal pain tests record how soon the animal reacts.

Structures are written as SMILES. Bounds are passed on as bounds.

Take `CN/C(=N/C#N)NCCCCCCc1ccc(CN(C)C)o1`: the ED50 stood at 120 nmol.

Take `CN(C)Cc1ccc(CCCCNC(=O)c2ccccc2)o1`: the ED50 was determined as 203 nmol.

On to `CC(=O)NCCCCc1ccc(CN(C)C)o1`, for which the ED50 stood at 126 nmol.

On to `CN/C(=C/[N+](=O)[O-])NCCCCCCc1ccc(CN(C)C)o1`, for which the ED50 is 25 nmol.

`CN(C)Cc1ccc(CCCCCCNC(=O)Nc2ccccc2)o1`: the ED50 was determined as 284 nmol.

Take `CN(C)Cc1ccc(CCCCc2ccccc2)o1`: the ED50 amounted to 143 nmol.

As to `CN/C(=N/C#N)NCCCCc1ccc(CN(C)C)o1`, the ED50 was found to be 159 nmol.

Turning to `CN(C)Cc1ccc(CCCCN)o1`, the ED50 worked out at 689 nmol.

In the case of `CN(C)Cc1ccc(CCCCNc2ccccc2)o1`, the ED50 came to 131 nmol.

In the case of `CN/C(=C/[N+](=O)[O-])NCCCCc1ccc(CN(C)C)o1`, the ED50 is 111 nmol.

Regarding `CN(C)Cc1ccc(CCCCCCNC(=O)Nc2ccc(I)cc2)o1`, the ED50 is above 149 nmol.

As for `CN(C)Cc1ccc(CCCCNC(=O)Nc2ccc(I)cc2)o1`, the ED50 is above 226 nmol.

(Values after ChEMBL document CHEMBL1139809, “Antinociceptive activity of furan-containing congeners of improgan and ranitidine” (2007).)
